Values quoted from earlier work as cited in patent US7747395B2, “Method of inhibitor design and identification using a 3-D structure of human peptide deformylase” (Sloan-Kettering Institute for Cancer Research, priority 2007, dated 2010).

System: drug resistant bacterial strains
Details: cited from earlier work

Structure (SMILES): CC(C)(C)[C@H](NC(=O)[C@H](CC1CCCC1)CN(O)C=O)C(=O)N1CCN(Cc2ccc3c(c2)OCO3)CC1 [BB-83698]
- antibacterial activity in vitro: broad spectrum activity in vitro against drug resistant bacterial strains
